Drawing on patent US11787762B2, “Tetralin and tetrahydroquinoline compounds as inhibitors of HIF-2alpha” (ARCUS BIOSCIENCES, INC., priority 2020, dated 2023), this text covers IC50 for eleven molecules.

The term IC50 denotes the concentration at which inhibition is half-maximal. Low values mean greater potency, high ones weaker potency.

In assay [1] the target is T1, Histidine tagged HIF-2α protein containing PAS-B domain (240-350) (Homo sapiens, UniProt Q99814).
T1 construct: HIF-2α protein containing PAS-B domain (240-350); made in house
T1 sequence (Q99814 240-350): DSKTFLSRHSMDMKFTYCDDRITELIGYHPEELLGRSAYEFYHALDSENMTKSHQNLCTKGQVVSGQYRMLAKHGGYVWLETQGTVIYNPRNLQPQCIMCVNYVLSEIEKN
As to the kind of experiment: HIF-2α Scintillation Proximity Assay (SPA) binding assay. To be noted: Table 1; 50 nM HIF-2α protein, 25 nM 3H-tracer. Here is the method:
HIF-2α Scintillation Proximity Assay (SPA) Binding Assay:
Tritium labeled compound N-(3-chlorophenyl)-4-nitro-2,1,3-benzoxadiazol-5-amine was obtained from American Radiolabeled Chemicals Inc. and copper chelate PVT SPA beads were from PerkinElmer (Cat #RPNQ0095). Histidine tagged HIF-2α protein containing PAS-B domain (240-350) was prepared and purified in house.
Compounds solubilized in DMSO were dispensed into a white 384-well polystyrene non-binding flat clear bottom plate (Greiner Bio-One, Cat #781903) using an HP D300 dispenser. Ten microliters of HIS-tagged HIF-2α protein in buffer (25 mM Tris-HCl, pH 7.4, 150 mM NaCl, 0.15% BSA and 0.001% Tween 20) was added to the compound wells and allowed to incubate for 1 hour at room temperature. Ten microliters of SPA bead mix were added to the wells and incubated for an additional 45 minutes, followed by 10 ul of ^3H-tracer solution. Final assay conditions comprised 50 nM HIF-2α protein, 25 nM radiolabeled tracer and 3 ug beads per well with compounds in 2% DMSO. The plate was read using a MicroBeta Microplate Counter (PerkinElmer) for luminescence detection. The IC50 values of the test compounds were determined from compound dose response curves fitted using a standard four parameter fit equation and are reported in Table 1, Table 2, and Table 3.

Another assay addresses T2, HIF-2α (Homo sapiens, UniProt Q99814).
T2 construct: host or cells: 786-O cells stably transduced with Cignal Lenti HIF Luc Reporter (only the reporter was introduced, not HIF-2α)
As to the kind of experiment: HIF-2α luciferase reporter assay in HIF-Luc-786-O cells. To be noted: Table 1, 20 hours incubation. In kind it is cell-based. In short, it runs like this:
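786-O cells stably carrying a HIF-responsive luciferase reporter, 20,000/well in OptiMem with 1% DMSO, exposed to compound up to 50 uM for 20 h at 37 °C. ONE-Glo luminescence normalised to DMSO and no-cell controls; IC50 by four-parameter fit.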
(In general: A reporter such as luciferase makes a cellular process visible.)

T2 sequence (Q99814 whole entry): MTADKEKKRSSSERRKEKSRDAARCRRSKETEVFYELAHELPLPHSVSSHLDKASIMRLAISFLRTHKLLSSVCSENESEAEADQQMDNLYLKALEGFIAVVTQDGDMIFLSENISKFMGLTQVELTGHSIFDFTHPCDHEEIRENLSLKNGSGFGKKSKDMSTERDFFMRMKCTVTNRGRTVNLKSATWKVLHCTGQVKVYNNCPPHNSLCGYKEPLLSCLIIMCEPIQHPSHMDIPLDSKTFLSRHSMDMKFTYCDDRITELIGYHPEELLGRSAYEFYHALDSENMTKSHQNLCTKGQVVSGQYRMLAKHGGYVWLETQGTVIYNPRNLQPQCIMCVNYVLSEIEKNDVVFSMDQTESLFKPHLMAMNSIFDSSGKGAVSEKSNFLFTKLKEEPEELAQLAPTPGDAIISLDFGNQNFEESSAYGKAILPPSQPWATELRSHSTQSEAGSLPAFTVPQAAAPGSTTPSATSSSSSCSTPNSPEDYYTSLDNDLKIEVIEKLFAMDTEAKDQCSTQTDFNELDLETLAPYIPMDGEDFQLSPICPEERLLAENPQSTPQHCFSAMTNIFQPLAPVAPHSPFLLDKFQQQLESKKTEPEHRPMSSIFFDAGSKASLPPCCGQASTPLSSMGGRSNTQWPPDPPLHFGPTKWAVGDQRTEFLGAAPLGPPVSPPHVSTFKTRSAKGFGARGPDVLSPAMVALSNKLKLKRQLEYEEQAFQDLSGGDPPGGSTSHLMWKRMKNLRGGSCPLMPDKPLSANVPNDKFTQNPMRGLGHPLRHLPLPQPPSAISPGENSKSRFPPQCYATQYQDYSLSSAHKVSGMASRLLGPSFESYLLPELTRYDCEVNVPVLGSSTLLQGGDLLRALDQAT

`CS(=O)(=O)c1ccc(C2CCCc3cc(F)cc(C#N)c32)c2c1[C@H](O)[C@H](F)C2` (stereo in doubt) [Example 7, (8S)-3-fluoro-8-((1S,2R)-2-fluoro-1-hydroxy-7-(methylsulfonyl)-2,3-dihydro-1H-inden-4-yl)-5,6,7,8-tetrahydronaphthalene-1-carbonitrile]: the IC50 (in assay [1]; against HIF-2α) was < 100 nM throughout.

Regarding `CS(=O)(=O)c1ccc(N2CCCc3cc(F)cc(F)c32)c2c1[C@H](O)C(F)(F)C2` (stereo in doubt) [Example 22, 4-(6,8-difluoro-1,2,3,4-tetrahydroquinolin-1-yl)-2,2-difluoro-7-methanesulfonyl-2,3-dihydro-1H-inden-1-ol], the IC50 in assay [1] was 100 to 1000 nM; against HIF-2α, > 1000 nM.

Take `CS(=O)(=O)c1ccc([C@H]2CCCc3cc(F)cc(F)c32)c2c1[C@H](O)[C@H](F)C2` (stereo in doubt) [Example 99]: the IC50 (in assay [1]; against HIF-2α) was 100 to 1000 nM throughout.

Regarding `CS(=O)(=O)c1ccc(C2CCCc3cc(F)cc(F)c32)c(Cl)c1C#N` (stereo not shown) [Example 1, 2-chloro-3-(6,8-difluoro-1,2,3,4-tetrahydronaphthalen-1-yl)-6-methanesulfonylbenzonitrile], the IC50 in assay [1] was 100 to 1000 nM; against HIF-2α it was > 1000 nM.

Take `O=S(=O)(c1ccc([C@H]2CCCc3cc(F)cc(F)c32)c2c1[C@H](O)[C@H](F)C2)C(F)(F)F` [Example 2a, (1S,2R)-4-[R-6,8-difluoro-1,2,3,4-tetrahydronaphth-1-yl]-2-fluoro-7-(trifluoromethylsulfonyl)-1-indanol]: the IC50 (in assay [1]; against HIF-2α) was < 100 nM throughout.

Take `O=S(=O)(c1ccc([C@@H]2CCCc3cc(F)cc(F)c32)c2c1[C@H](O)[C@H](F)C2)C(F)(F)F` [Example 2b, (1S,2R)-4-[S-6,8-difluoro-1,2,3,4-tetrahydronaphth-1-yl]-2-fluoro-7-(trifluoromethylsulfonyl)-1-indanol]: the IC50 (in assay [1]; on HIF-2α) was 100 to 1000 nM in each case.

As for `CS(=O)(=O)c1ccc([C@@H]2CCCc3cc(F)cc(F)c32)c2c1[C@H](O)[C@H](F)C2` [Example 3, (1S,2R)-4-[(1S)-6,8-difluoro-1,2,3,4-tetrahydronaphthalen-1-yl]-2-fluoro-7-methanesulfonyl-2,3-dihydro-1H-inden-1-ol], the IC50 (in assay [1]; against HIF-2α) was > 1000 nM throughout.

For the molecule `CS(=O)(=O)c1ccc([C@H]2CCCc3cc(F)cc(F)c32)c2c1[C@H](O)[C@H](F)C2` [Example 4, (1S,2R)-4-[(1R)-6,8-difluoro-1,2,3,4-tetrahydronaphthalen-1-yl]-2-fluoro-7-methanesulfonyl-2,3-dihydro-1H-inden-1-ol], the IC50 in assay [1] was < 100 nM; at HIF-2α, 100 to 1000 nM.

In the case of `N#Cc1cc(F)cc2c1[C@@H](c1ccc(S(=O)(=O)C(F)(F)F)c3c1C[C@@H](F)[C@H]3O)CCC2` [Example 5, (8R)-3-fluoro-8-((1S,2R)-2-fluoro-1-hydroxy-7-((trifluoromethyl)sulfonyl)-2,3-dihydro-1H-inden-4-yl)-5,6,7,8-tetrahydronaphthalene-1-carbonitrile], the IC50 (in assay [1]; on HIF-2α) was < 100 nM each time.

For `N#Cc1cc(F)cc2c1[C@H](c1ccc(S(=O)(=O)C(F)(F)F)c3c1C[C@@H](F)[C@H]3O)CCC2` [Example 6, (S)-3-fluoro-8-((1S,2R)-2-fluoro-1-hydroxy-7-((trifluoromethyl)sulfonyl)-2,3-dihydro-1H-inden-4-yl)-5,6,7,8-tetrahydronaphthalene-1-carbonitrile], the IC50 (in assay [1]; at HIF-2α) was > 1000 nM each time.

Regarding `O=S(=O)(c1ccc([C@H]2CCOc3cc(F)cc(F)c32)c2c1[C@H](O)[C@H](F)C2)C(F)(F)F` [Example 8, (1S,2R)-4-[(4R)-5,7-difluoro-3,4-dihydro-2H-1-benzopyran-4-yl]-2-fluoro-7-trifluoromethanesulfonyl-2,3-dihydro-1H-inden-1-ol], the IC50 (in assay [1]; at HIF-2α) was 100 to 1000 nM throughout.
